This note sets out measurements from patent US20250002450A1, “CATIONIC STEROID COMPOUNDS, METHOD OF OBTAINING THEREOF, FORMULATIONS COMPRISING THEREOF AND THEIR USES” (UNIVERSIDADE DO PORTO, priority 2021, published 2025).

The subject of assay [1] is S. aureus 66/1 (MRSA). The experiment in a line: Kirby-Bauer disk diffusion. It counts as cell-based, Staphylococcus aureus. Conditions: 15 μg per disk. As to the method:
An initial screening of the antibacterial activity of the compounds was performed by the Kirby-Bauer disk diffusion method, as recommended by the Clinical and Laboratory Standards Institute (CLSI). Briefly, sterile 6 mm blank paper disks (Oxoid, Basingstoke, England) impregnated with 15 μg of each compound were placed on inoculated MH agar plates. A blank disk with dimethylsulfoxide (DMSO) was used as a negative control. MH inoculated plates were incubated for 18-20 h at 37 degrees C. At the end of incubation, the inhibition halos where measured. The MIC was used to determine the antibacterial activity of each compound, in accordance with the recommendations of the CLSI. Two-fold serial dilutions of the compounds were prepared in Mueller-Hinton Broth 2 (MHB2—Sigma-Aldrich, St. Louis, MO, USA) within the concentration range of 0.062-64 μg/mL. CTX ranging between 0.031-16 μg/mL was used as a control. Sterility and growth controls were included in each assay. Purity checks and colony counts of the inoculum suspensions were also performed in order to ensure that the final inoculum density closely approximates the intended number (5×10^5 CFU/mL). The MIC was determined as the lowest concentration of compound that inhibited growth of the bacteria. The MBC was assessed by spreading 10 μL of culture collected from wells showing no visible growth on MH agar plates. […]
Background: Agar diffusion results depend on both activity and mobility in agar.

Assay [2] has as its system E. coli ATCC 25922. Briefly: Bacterial biofilm formation inhibition (crystal violet). The assay is classed as cell-based, Escherichia coli. As to the method:
In an embodiment, the antibiofilm activity of compound 1 was performed as follows. Given its bactericidal effect, the impact of compound 1 on the biofilm formation of reference strains was studied.
The effect of compound 1 on bacterial biofilm formation was evaluated through quantification of total biomass, using the crystal violet method, as previously described ([FIG. 6]). […] A control with an appropriate concentration of DMSO, as well as a negative control (TSB alone) was included. Sterile 96-well flat-bottomed untreated polystyrene microtiter plates were used. After a 24 h incubation at 37 degrees C., the biofilms were heat-fixed for 1 h at 60 degrees C. and stained with 0.5% (v/v) crystal violet (Quimica Clinica Aplicada, Amposta, Spain) for 5 min. The stain was resolubilized with 33% (v/v) acetic acid (Acetic acid 100%, AppliChem, Darmstadt, Germany) and the biofilm biomass was quantified by measuring the absorbance of each sample at 570 nm in a microplate reader (Thermo Scientific Multiskan® EX, Thermo Fisher Scientific, Waltham, MA, USA). The background absorbance (TSB or TSB+1% glucose without inoculum) was subtracted from the absorbance of each sample and the data are presented as a percentage of control. Three independent assays were performed for reference strains, with triplicates for each experimental condition.

Assay [3] concerns yeasts and filamentous fungi, including dermatophytes. Briefly: Antifungal activity, whole strain panel. It counts as cell-based. Particulars: all microorganisms tested (Table 2). As to the method: The antifungal activity of compound 1 was evaluated for a wide range of fungal species, covering yeasts and filamentous fungi, including dermatophytes. […] This antimicrobial effect was fungicidal, with minimal lethal concentrations (MLC) being equal to, or one or two-fold higher than the respective MIC. Twenty-three fungal strains were used in this study, including reference strains and clinical isolates of yeasts and filamentous fungi. Yeast strains included reference strains (ATCC—American Type Culture Collection and CECT—Colección Española de Cultivos Tipo) and clinical isolates: C. albicans ATCC 10231, Candida krusei ATCC 6258, C. albicans H37, C. albicans FF172, C. albicans FF176, C. albicans DSY294, C. albicans DSY296, C. glabrata DSY562, C. glabrata DSY565 and Cryptococcus neoformans CECT 1078. […]
Antifungal activity was evaluated by determining the MIC of compound 1 by the broth microdilution method, according to CLSI guidelines (reference documents M27-A3 for yeasts and M38-A2 for filamentous fungi). […] The minimal lethal concentration (MLC) was determined by spreading 20 μL of culture collected from wells showing no visible growth on SDA plates. The MLC was determined as the lowest concentration showing complete growth inhibition after 48 h at 35 degrees C., 48 h at 25 degrees C. […]

Bounds are passed on as bounds.

Turning to `C[C@H](CCC(=O)NCCN)[C@H]1CC[C@H]2[C@@H]3CC[C@@H]4C[C@H](O)CC[C@]4(C)[C@H]3C[C@H](O)[C@]12C` [Compound 1, (R)—N-(2-aminoethyl)-4-((3R,5R,8R,9S,10S,12S,13R,14S,17R)-3,12-dihydroxy-10,13-dimethylhexadecahydro-1H-cyclopenta[a]phenanthren-17-yl) pentanamida], in assay [1], the Disk diffusion stood at 11 mm. For the same molecule, the “biofilm formation (in words)” value in assay [2] (2×MIC and MIC, 24 h) is given as “significantly inhibited”. Further, the “minimal biofilm inhibitory concentration (MBIC)” value in assay [2] (80% reduction of biofilm formation, E. coli ATCC 25922) is less than 8 µg/mL. For the same molecule, in assay [3], the “spectrum of antifungal activity (in words)” value is “active against all microorganisms tested”.
